According to US20090162313A1, “High-Molecular Weight Conjugate of Podophyllotoxins” (priority 2006, published 2009):

What was measured:
[1] = system: Mouse colon cancer, Colon 26; test: Antitumor effect of compound 1, subcutaneously transplanted tumor, relative tumor volume; format: in vivo; conditions: 90 mg/kg once i.v., female CDF1 mice
Method: (§1) Mouse colon cancer, Colon 26, maintained by serial subcutaneous subculture in mice, was minced into about 2-mm square fragments, and the fragments were subcutaneously transplanted on the dorsal part of female CDF1 mice with a trocar. […] The control group means a group to which the drug was not administered. Compound 1 was dissolved in a 5% glucose solution for injection and used. As for […] injection (manufactured by Nippon Kayaku Co., Ltd.) was diluted with a 5% glucose solution for injection and used. After the administration, the major axis (L mm) and the minor axis (W mm) of the tumor were measured using a caliper, and the tumor volume was calculated by the formula: (L×W^2)/2. […] The changes of the body weight during this period of time is also shown in Table 1 as the relative body weight based on the body weight on the day of administration.

[2] = Relative body weight of tumor-bearing mice, Test Example 3; format: in vivo, mouse; conditions: 90 mg/kg once i.v., female CDF1 mice
Method: as §1

[3] = system: Mouse colon cancer, Colon 26; test: Antitumor action of compounds 2 and 3, subcutaneously transplanted tumor, relative tumor volume; format: in vivo; conditions: 15 mg/kg i.v. for 5 consecutive days (total 75 mg/kg), female CDF1 mice
Method: (§2) Mouse colon cancer, Colon 26, maintained by serial subcutaneous subculture in mice, was minced into about 2 mm-square fragments, and the fragments were transplanted subcutaneously on the dorsal part of female CDF1 mice with a trocar. […] The control group means a group to which the drug was not administered. POD, purchased from Sigma-Aldrich Company, was diluted with dimethylsulfoxide and a 5% glucose solution for injection and administered for 5 consecutive days from the administration initiation day. After the administration, the major axis (L mm) and the minor axis (W mm) of the tumor were measured using a caliper, and the tumor volume was calculated by the formula: (L×W^2)/2. […] The changes of the body weight during this period of time is also shown in Table 2 as the relative body weight based on the body weight on the day of administration.

[4] = Relative body weight of tumor-bearing mice, Test Example 4; format: in vivo, mouse; conditions: 15 mg/kg i.v. for 5 consecutive days (total 75 mg/kg), female CDF1 mice
Method: as §2

[5] = day 0 after administration initiation day
[6] = day 3 after administration initiation day
[7] = day 5 after administration initiation day
[8] = day 8 after administration initiation day

SMILES | Relative tumor volume ([1]; day 0 after administration) | Relative tumor volume ([1]; day 4 after administration) | Relative tumor volume ([1]; day 8 after administration) | Relative body weight ([2]; day 0 after administration) | Relative body weight ([2]; day 4 after administration) | Relative body weight ([2]; day 8 after administration) | Relative tumor volume [3, 5] | Relative tumor volume [3, 6] | Relative tumor volume [3, 7] | Relative tumor volume [3, 8] | Relative body weight [4, 5] | Relative body weight [4, 6] | Relative body weight [4, 7] | Relative body weight [4, 8]
COc1cc([C@@H]2c3cc4c(cc3[C@@H](O[C@@H]3O[C@@H]5CO[C@@H](C)O[C@H]5[C@H](O)[C@H]3O)[C@H]3COC(=O)[C@H]23)OCO4)cc(OC)c1O [ETP, etoposide] | 1.00 | 1.17 | 3.79 | 1.00 | 0.87 | 0.97 | – | – | – | – | – | – | – | –
COc1cc([C@@H]2c3cc4c(cc3[C@H](O)[C@H]3COC(=O)[C@H]23)OCO4)cc(OC)c1OC [POD, podophyllotoxin] | – | – | – | – | – | – | 1.00 | 1.58 | 1.79 | 6.08 | 1.00 | 1.01 | 0.96 | 0.98
